Measurements from patent US20160214948A1, “PRODRUGS OF MONOMETHYL FUMARATE (MMF)” (RATIOPHARM GMBH, priority 2013, published 2016).

Tested on: MOG35-55-induced experimental autoimmune encephalomyelitis (EAE)
Assay: MOG35-55-induced experimental autoimmune encephalomyelitis (EAE) in C57BL/6 mice
Assay type: in vivo
Conditions: male C57BL/6 mice
Procedure: Assessment and Comparison of the Efficacy of Compounds of the Invention and DMF (Reference) in MOG35-55-Induced Experimental Autoimmune Encephalomyelitis (EAE) in C57BL/6 Mice
male C57BL/6 mice, 12 weeks old; 10 animals per treatment group;
Day 1—subcutaneous injection of MOG35-55, suspended in complete Freund's adjuvans and intraperitoneal injection of pertussis toxin.
Day 3—intraperitoneal injection of pertussis toxin.
Dimethylfumarate and test substances or vehicle only were administered via oral and intravenous route.
For oral administration, test substances were dissolved or suspended in 0.5% hydroxyethylcellulose (dissolved in 50 mM potassium dihydrogenphosphate, pH 5.0). Drug concentration in dose formulations: 11.54 mM;
Dose volume: 10 ml/kg body weight;
Start of treatment: Day 3
For intravenous administration, stock solutions were prepared in DMSO and serially diluted with phosphate buffered saline.
Observations were recorded on day 2, 4, 6, 8, 10, 12, 14 and 16.
Clinical score: grade 0-10; 0 (=no impairments), 1 (normal movement; limp tail: proximal 2/3 of the tail is limp and droopy), 2 (normal movement; whole tail is limp; 3 (wobbly walk; absent righting reflex), 4 (gait ataxia), 5 (milad paraparesis), 6 (moderate paraparesis), 7 (severe paraparesis or paraplegia), 8 (tetraparesis), 9 (moribund), 10 (death).

In the case of COC(=O)/C=C/C(=O)OCCN1CCSCC1 [Ia], the body weight (FIG. 4) is reported as “substantially maintained” and the clinical score (grade 0-10, FIG. 3, with reference to DMF) is reported as “reduced with reference to DMF”.
